Data published in ChEMBL document CHEMBL1671627, “Increasing trends in antimicrobial resistance among clinically important anaerobes and Bacteroides fragilis isolates causing nosocomial infections: emerging resistance to carbapenems” (2008).
≈ marks a conversion by molar mass, not a printed value.

Experiments:
Bacteroides fragilis [1] = assay: Antibacterial activity against Bacteroides fragilis assessed as susceptible isolates by CLSI agar dilution method; format: functional
Bacteroides fragilis [2] = assay: Antibacterial activity against Bacteroides fragilis assessed as resistant isolates by CLSI agar dilution method; format: functional
[3] = test system: Bacteroides thetaiotaomicron; assay: Antibacterial activity against beta-lactamase producing Bacteroides thetaiotaomicron assessed as susceptible isolates by CLSI agar dilution method; format: functional
[4] = test system: Bacteroides thetaiotaomicron; assay: Antibacterial activity against beta-lactamase producing Bacteroides thetaiotaomicron assessed as resistant isolates by CLSI agar dilution method; format: functional
Phocaeicola vulgatus [5] = assay: Antibacterial activity against beta-lactamase producing Bacteroides vulgatus by CLSI agar dilution method; format: functional
Phocaeicola vulgatus [6] = assay: Antibacterial activity against beta-lactamase producing Bacteroides vulgatus assessed as susceptible isolates by CLSI agar dilution method; format: functional
Phocaeicola vulgatus [7] = assay: Antibacterial activity against beta-lactamase producing Bacteroides vulgatus assessed as resistant isolates by CLSI agar dilution method; format: functional
Bacteroides uniformis [8] = assay: Antibacterial activity against beta-lactamase producing Bacteroides uniformis by CLSI agar dilution method; format: functional
Bacteroides uniformis [9] = assay: Antibacterial activity against beta-lactamase producing Bacteroides uniformis assessed as susceptible isolates by CLSI agar dilution method; format: functional
Bacteroides uniformis [10] = assay: Antibacterial activity against beta-lactamase producing Bacteroides uniformis assessed as resistant isolates by CLSI agar dilution method; format: functional
Bacteroides caccae [11] = assay: Antibacterial activity against beta-lactamase producing Bacteroides caccae by CLSI agar dilution method; format: functional
Bacteroides caccae [12] = assay: Antibacterial activity against beta-lactamase producing Bacteroides caccae assessed as susceptible isolates by CLSI agar dilution method; format: functional
Bacteroides caccae [13] = assay: Antibacterial activity against beta-lactamase producing Bacteroides caccae assessed as resistant isolates by CLSI agar dilution method; format: functional
Fusobacterium varium [14] = assay: Antibacterial activity against Fusobacterium varium by CLSI agar dilution method; format: functional
Fusobacterium nucleatum [15] = assay: Antibacterial activity against Fusobacterium nucleatum by CLSI agar dilution method; format: functional
Fusobacterium mortiferum [16] = assay: Antibacterial activity against Fusobacterium mortiferum by CLSI agar dilution method; format: functional
[17] = test system: Fusobacterium necrophorum; assay: Antibacterial activity against Fusobacterium necrophorum by CLSI agar dilution method; format: functional
Fusobacterium varium [18] = assay: Antibacterial activity against Fusobacterium varium assessed as susceptible isolates by CLSI agar dilution method; format: functional
Fusobacterium nucleatum [19] = assay: Antibacterial activity against Fusobacterium nucleatum assessed as susceptible isolates by CLSI agar dilution method; format: functional
Fusobacterium mortiferum [20] = assay: Antibacterial activity against Fusobacterium mortiferum assessed as susceptible isolates by CLSI agar dilution method; format: functional
[21] = test system: Fusobacterium necrophorum; assay: Antibacterial activity against Fusobacterium necrophorum assessed as susceptible isolates by CLSI agar dilution method; format: functional
Fusobacterium varium [22] = assay: Antibacterial activity against Fusobacterium varium assessed as resistant isolates by CLSI agar dilution method; format: functional
Fusobacterium nucleatum [23] = assay: Antibacterial activity against Fusobacterium nucleatum assessed as resistant isolates by CLSI agar dilution method; format: functional
Fusobacterium mortiferum [24] = assay: Antibacterial activity against Fusobacterium mortiferum assessed as resistant isolates by CLSI agar dilution method; format: functional
[25] = test system: Fusobacterium necrophorum; assay: Antibacterial activity against Fusobacterium necrophorum assessed as resistant isolates by CLSI agar dilution method; format: functional
Prevotella buccae [26] = assay: Antibacterial activity against Prevotella buccae by CLSI agar dilution method; format: functional; conditions: Segatella buccae
Prevotella bivia [27] = assay: Antibacterial activity against Prevotella bivia by CLSI agar dilution method; format: functional
Prevotella intermedia [28] = assay: Antibacterial activity against Prevotella intermedia by CLSI agar dilution method; format: functional
[29] = test system: Prevotella melaninogenica; assay: Antibacterial activity against Prevotella melaninogenica by CLSI agar dilution method; format: functional
Prevotella buccae [30] = assay: Antibacterial activity against Prevotella buccae assessed as susceptible isolates by CLSI agar dilution method; format: functional, Segatella buccae
Prevotella bivia [31] = assay: Antibacterial activity against Prevotella bivia assessed as susceptible isolates by CLSI agar dilution method; format: functional
Prevotella intermedia [32] = assay: Antibacterial activity against Prevotella intermedia assessed as susceptible isolates by CLSI agar dilution method; format: functional
[33] = test system: Prevotella melaninogenica; assay: Antibacterial activity against Prevotella melaninogenica assessed as susceptible isolates by CLSI agar dilution method; format: functional
Prevotella buccae [34] = assay: Antibacterial activity against Prevotella buccae assessed as resistant isolates by CLSI agar dilution method; format: functional, Segatella buccae
Prevotella bivia [35] = assay: Antibacterial activity against Prevotella bivia assessed as resistant isolates by CLSI agar dilution method; format: functional
Prevotella intermedia [36] = assay: Antibacterial activity against Prevotella intermedia assessed as resistant isolates by CLSI agar dilution method; format: functional
[37] = test system: Prevotella melaninogenica; assay: Antibacterial activity against Prevotella melaninogenica assessed as resistant isolates by CLSI agar dilution method; format: functional
Veillonella parvula = assay: Antibacterial activity against Veillonella parvula by CLSI agar dilution method; format: functional
Clostridium perfringens = assay: microbe, parasite or virus in culture; format: functional
[38] = test system: Clostridium paraputrificum; assay: Antibacterial activity against beta-lactamase producing Clostridium paraputrificum by CLSI agar dilution method; format: functional
Clostridium septicum [39] = assay: Antibacterial activity against beta-lactamase producing Clostridium septicum by CLSI agar dilution method; format: functional
Clostridium tertium [40] = assay: Antibacterial activity against beta-lactamase producing Clostridium tertium by CLSI agar dilution method; format: functional
[41] = test system: Clostridium paraputrificum; assay: Antibacterial activity against beta-lactamase producing Clostridium paraputrificum assessed as susceptible isolates by CLSI agar dilution method; format: functional
Clostridium septicum [42] = assay: Antibacterial activity against beta-lactamase producing Clostridium septicum assessed as susceptible isolates by CLSI agar dilution method; format: functional
Clostridium tertium [43] = assay: Antibacterial activity against beta-lactamase producing Clostridium tertium assessed as susceptible isolates by CLSI agar dilution method; format: functional
Bacteroides fragilis [44] = assay: Antibacterial activity against Bacteroides fragilis by CLSI agar dilution method; format: functional
[45] = test system: Bacteroides thetaiotaomicron; assay: Antibacterial activity against beta-lactamase producing Bacteroides thetaiotaomicron by CLSI agar dilution method; format: functional
[46] = test system: Clostridium paraputrificum; assay: Antibacterial activity against beta-lactamase producing Clostridium paraputrificum assessed as resistant isolates by CLSI agar dilution method; format: functional
Clostridium septicum [47] = assay: Antibacterial activity against beta-lactamase producing Clostridium septicum assessed as resistant isolates by CLSI agar dilution method; format: functional
Clostridium tertium [48] = assay: Antibacterial activity against beta-lactamase producing Clostridium tertium assessed as resistant isolates by CLSI agar dilution method; format: functional
[49] = test system: Peptostreptococcus anaerobius; assay: Antibacterial activity against beta-lactamase producing Peptostreptococcus anaerobius by CLSI agar dilution method; format: functional
[50] = test system: Peptostreptococcus anaerobius; assay: Antibacterial activity against beta-lactamase producing Peptostreptococcus anaerobius assessed as susceptible isolates by CLSI agar dilution method; format: functional
[51] = test system: Peptostreptococcus anaerobius; assay: Antibacterial activity against beta-lactamase producing Peptostreptococcus anaerobius assessed as resistant isolates by CLSI agar dilution method; format: functional
Parvimonas micra [52] = assay: Antibacterial activity against beta-lactamase producing Micromonas micros by CLSI agar dilution method; format: functional
Parvimonas micra [53] = assay: Antibacterial activity against beta-lactamase producing Micromonas micros assessed as susceptible isolates by CLSI agar dilution method; format: functional
Parvimonas micra [54] = assay: Antibacterial activity against beta-lactamase producing Micromonas micros assessed as resistant isolates by CLSI agar dilution method; format: functional
[55] = test system: Peptoniphilus asaccharolyticus; assay: Antibacterial activity against beta-lactamase producing Peptoniphilus asaccharolyticus by CLSI agar dilution method; format: functional
[56] = test system: Peptoniphilus asaccharolyticus; assay: Antibacterial activity against beta-lactamase producing Peptoniphilus asaccharolyticus assessed as susceptible isolates by CLSI agar dilution method; format: functional
[57] = test system: Peptoniphilus asaccharolyticus; assay: Antibacterial activity against beta-lactamase producing Peptoniphilus asaccharolyticus assessed as resistant isolates by CLSI agar dilution method; format: functional
Finegoldia magna [58] = assay: Antibacterial activity against beta-lactamase producing Finegoldia magna by CLSI agar dilution method; format: functional
Finegoldia magna [59] = assay: Antibacterial activity against beta-lactamase producing Finegoldia magna assessed as susceptible isolates by CLSI agar dilution method; format: functional
Finegoldia magna [60] = assay: Antibacterial activity against beta-lactamase producing Finegoldia magna assessed as resistant isolates by CLSI agar dilution method; format: functional

`C[C@@H](O)[C@H]1C(=O)N2C(C(=O)O)=C(S[C@@H]3CN[C@H](C(=O)Nc4cccc(C(=O)O)c4)C3)[C@H](C)[C@H]12` showed an Activity (Bacteroides fragilis [1]) of 90%, an Activity (Bacteroides fragilis [2]) of 5% and an Activity [3] of 97%. It also gave an Activity [4] of 3%, an MIC50 (Phocaeicola vulgatus [5]) of 1 µg/mL (≈ 2.1 µM) and an MIC90 (Phocaeicola vulgatus [5]) of 2 µg/mL (≈ 4.21 µM). It also gave an Activity (Phocaeicola vulgatus [6]) of 92%, an Activity (Phocaeicola vulgatus [7]) of 4% and an MIC50 (Bacteroides uniformis [8]) of 1 µg/mL (≈ 2.1 µM). It also gave an MIC90 (Bacteroides uniformis [8]) of 2 µg/mL (≈ 4.21 µM), an Activity (Bacteroides uniformis [9]) of 92% and an Activity (Bacteroides uniformis [10]) of 4%. For the same compound, the MIC50 (Bacteroides caccae [11]) was 1 µg/mL (≈ 2.1 µM), the MIC90 (Bacteroides caccae [11]) was 2 µg/mL (≈ 4.21 µM) and the Activity (Bacteroides caccae [12]) was 92%. It also gave an Activity (Bacteroides caccae [13]) of 4%, an MIC50 (Fusobacterium varium [14]) of 0.06 µg/mL (≈ 0.126 µM) and an MIC90 (Fusobacterium varium [14]) of 0.12 µg/mL (≈ 0.252 µM). The MIC50 (Fusobacterium nucleatum [15]) was 0.06 µg/mL (≈ 0.126 µM), the MIC90 (Fusobacterium nucleatum [15]) was 0.12 µg/mL (≈ 0.252 µM) and the MIC50 (Fusobacterium mortiferum [16]) was 0.06 µg/mL (≈ 0.126 µM). For the same compound, the MIC90 (Fusobacterium mortiferum [16]) was 0.12 µg/mL (≈ 0.252 µM), the MIC50 [17] was 0.06 µg/mL (≈ 0.126 µM) and the MIC90 [17] was 0.12 µg/mL (≈ 0.252 µM). For the same compound, the Activity (Fusobacterium varium [18]) was 100%, the Activity (Fusobacterium nucleatum [19]) was 100% and the Activity (Fusobacterium mortiferum [20]) was 100%. It also gave an Activity [21] of 100%, an Activity (Fusobacterium varium [22]) of 0% and an Activity (Fusobacterium nucleatum [23]) of 0%. For the same compound, the Activity (Fusobacterium mortiferum [24]) was 0%, the Activity [25] was 0% and the MIC50 (Prevotella buccae [26]) was 0.12 µg/mL (≈ 0.252 µM). For the same compound, the MIC90 (Prevotella buccae [26]) was 0.5 µg/mL (≈ 1.05 µM), the MIC50 (Prevotella bivia [27]) was 0.12 µg/mL (≈ 0.252 µM) and the MIC90 (Prevotella bivia [27]) was 0.5 µg/mL (≈ 1.05 µM). The MIC50 (Prevotella intermedia [28]) was 0.12 µg/mL (≈ 0.252 µM), the MIC90 (Prevotella intermedia [28]) was 0.5 µg/mL (≈ 1.05 µM) and the MIC50 [29] was 0.12 µg/mL (≈ 0.252 µM). It also gave an MIC90 [29] of 0.5 µg/mL (≈ 1.05 µM), an Activity (Prevotella buccae [30]) of 100% and an Activity (Prevotella bivia [31]) of 100%. The Activity (Prevotella intermedia [32]) was 100%, the Activity [33] was 100% and the Activity (Prevotella buccae [34]) was 0%. The Activity (Prevotella bivia [35]) was 0%, the Activity (Prevotella intermedia [36]) was 0% and the Activity [37] was 0%. The MIC (Veillonella parvula) was 0.03 µg/mL (≈ 0.0631 µM), the MIC50 (Clostridium perfringens) was 0.12 µg/mL (≈ 0.252 µM) and the MIC90 (Clostridium perfringens) was 4 µg/mL (≈ 8.41 µM). It also gave an MIC50 [38] of 0.12 µg/mL (≈ 0.252 µM), an MIC90 [38] of 4 µg/mL (≈ 8.41 µM) and an MIC50 (Clostridium septicum [39]) of 0.12 µg/mL (≈ 0.252 µM). For the same compound, the MIC90 (Clostridium septicum [39]) was 4 µg/mL (≈ 8.41 µM), the MIC50 (Clostridium tertium [40]) was 0.12 µg/mL (≈ 0.252 µM) and the MIC90 (Clostridium tertium [40]) was 4 µg/mL (≈ 8.41 µM). For the same compound, the Activity [41] was 96%, the Activity (Clostridium septicum [42]) was 96% and the Activity (Clostridium tertium [43]) was 96%. For the same compound, the MIC50 (Bacteroides fragilis [44]) was 0.25 µg/mL (≈ 0.526 µM), the MIC90 (Bacteroides fragilis [44]) was 4 µg/mL (≈ 8.41 µM) and the MIC50 [45] was 1 µg/mL (≈ 2.1 µM). It also gave an MIC90 [45] of 4 µg/mL (≈ 8.41 µM), an Activity [46] of 0% and an Activity (Clostridium septicum [47]) of 0%. It also gave an Activity (Clostridium tertium [48]) of 0%, an MIC50 [49] of 0.06 µg/mL (≈ 0.126 µM) and an MIC90 [49] of 1 µg/mL (≈ 2.1 µM). It also gave an Activity [50] of 100%, an Activity [51] of 0% and an MIC50 (Parvimonas micra [52]) of 0.06 µg/mL (≈ 0.126 µM). It also gave an MIC90 (Parvimonas micra [52]) of 1 µg/mL (≈ 2.1 µM), an Activity (Parvimonas micra [53]) of 100% and an Activity (Parvimonas micra [54]) of 0%. For the same compound, the MIC50 [55] was 0.06 µg/mL (≈ 0.126 µM), the MIC90 [55] was 1 µg/mL (≈ 2.1 µM) and the Activity [56] was 100%. It also gave an Activity [57] of 0%, an MIC50 (Finegoldia magna [58]) of 0.06 µg/mL (≈ 0.126 µM) and an MIC90 (Finegoldia magna [58]) of 1 µg/mL (≈ 2.1 µM). The Activity (Finegoldia magna [59]) was 100% and the Activity (Finegoldia magna [60]) was 0%.
